Patent US12644133B2, “Methods and compositions to increase somatic cell nuclear transfer (SCNT) efficiency by removing histone H3-lysine trimethylation” (The Children's Medical Center Corporation, priority 2014, dated 2026)

Columns and labels:
SCNT embryos = experiment: Preimplantation development of SCNT embryos cultured in vitro; assay type: cell-based, mouse; settings: for No. of blastocyst / blastocyst (% per 1-cell): ntESC derivation experiment
Excerpt: C57BL/6J female mice were mated with DBA/2J males to produce B6D2F1/J (BDF1) mice. BDF1 and CD-1 (ICR) adult females were used for the collection of recipient oocytes and embryo transfer recipients, respectively. BDF1 mice were used for the collection of donor somatic cells for the analyses of development. (C57BL/6×CAST/EiJ) F1 mice were used for the collection of donor cells for RNA-seq. E13.5 embryos harboring GOF18 delta-PE (Jackson Laboratory, 004654: Tg(Pou5f1-EGFP)2Mnn, C57BL/6J background) were used for the isolation of mouse embryonic fibroblasts (MEF). All animal experiments were approved by the Institutional Animal Care and Use Committee of Harvard Medical School.
Cumulus cells were collected from adult BDF1 females through superovulation by injecting 7.5 IU of pregnant mare serum gonadotropin (PMSG; Harbor) and 7.5 IU of human chorionic gonadotropin (hCG; Millipore). Fifteen hours after the hCG injection, cumulus-oocyte complexes (COCs) were collected from the oviducts and briefly treated with Hepes-buffered potassium simplex-optimized medium (KSOM) containing 300 U/ml bovine testicular hyaluronidase (Calbiochem #385931) to obtain dissociated cumulus cells. Sertoli cells were collected from testes of 3- to 5-day-old BDF1 male mice as described (Matoba et al., 2011). Testicular masses were incubated in PBS containing 0.1 mg/ml collagenase (Life Technologies #17104-019) for 30 min at 37° C. followed by 5 min treatment with 0.25% Trypsine with 1 mM EDTA (Life Technologies #25200-056) at room temperature. After washing for four times with PBS containing 3 mg/ml bovine serum albumin, the dissociated cells were suspended in Hepes-KSOM medium.
Primary mouse embryonic fibroblast (MEF) cells were established from GOF18 delta-PE mouse embryos at 13.5 dpc. After removal of head and all organs, minced tissue from remaining corpus was dissociated in 500 μl of 0.25% Trypsine with 1 mM EDTA for 10 min at 37° C. Cell suspension was diluted with equal amount of DMEM (Life Technologies #11995-073) containing 10% FBS and Penicillin/Streptomycin (Life Technologies #15140-022) and pipetted up and down for 20 times. The cell suspension was diluted with fresh medium and plated onto 100 mm dishes and cultured at 37° C. Two days later, MEF cells were harvested and frozen. Frozen stocks of MEF cells were thawed and used for experiments after one passage.
siRNAs against mouse Suv39h1 (Life Technologies #s74607), Suv39h2 (Life Technologies #s82300) and Setdb1 (Life Technologies #s96549) were diluted in nuclease free water at 50 μM stock solutions. siRNAs were introduced to MEFs with Lipofectamine RNAi Max (Life technologies #35050-061) following manufacturer's protocol. Briefly, 1×10^5 MEF cells were seeded onto 24-well plate (day 0; see FIG. 5A). Twenty-four hours later, […] siRNAs were transfected into MEF cells using Lipofectamine RNAi Max (day 1). Twenty-four hours after the first transfection, the culture media was changed to fresh M293T media [DMEM supplemented with 10% FBS, 0.1 mM non-essential amino acids (Life technologies #11140-050), 2 mM GlutaMAX (Life technologies #35050-079), 50 U/ml penicillin-streptomycin and 0.1 mM 2-mercaptoethanol (Life technologies #21985-023)] (day 2). On day 3, MEF cells were reseeded onto 24-well plates at the density of 1×10^5 cells. Then transfection was repeated once as described above (day 4). Forty-eight hours after the second transfection (day 6), MEF cells were used for immunostaining, RT-qPCR or SCNT.
Somatic cell nuclear transfer was carried out as described previously (Matoba et al., 2011). Briefly, recipient MII oocytes were collected from superovulated adult BDF1 females by brief treatment with 300 U/ml bovine testicular hyaluronidase (Calbiochem). Isolated MII oocytes were enucleated in Hepes-buffered KSOM medium containing 7.5 μg/ml of cytochalasin B (Calbiochem #250233). […]

SCNT blastocysts = experiment: ntESC derivation from SCNT blastocysts; assay type: cell-based, mouse; settings: for No. of blastocyst attached to feeder cells / No. of established ntESC lines / blastocyst attached to feeder cells (% per blast) / established ntESC lines (% per MII oocyte) / established ntESC lines (% per blast): cumulus donor cells (BDF1, female)
Protocol: Blastocysts were denuded by acid tyrode treatment and cultured on mitomycin treated MEF feeder cells and in DMEM supplemented with 5% FBS, 10% KnockOut serum replacement (Life Technologies #10828-028), 0.1 mM non-essential amino acids, 2 mM GlutaMAX, 50 U/ml penicillin-streptomycin, 0.1 mM 2-mercaptoethanol and 2000 U leukemia inhibitory factor (LIF, Millipore #ESG1107) at 37° C. 5% CO2. Four to five days later, outgrowths from attached embryos were dissociated with 0.25% trypsin and passaged all onto new feeder cells. On the following day, the medium was replaced with N2B27-LIF media [DMEM/F12 (Life Technologies #10565-042) supplemented with 0.1 mM non-essential amino acids, 2 mM GlutaMAX, 50 U/ml penicillin-streptomycin, 0.1 mM 2-mercaptoethanol, 0.5×N2 supplement (Life technologies #17502-048), 0.5× B27 supplement (Life technologies #17504-044), […] CHIR99021 (STEMGENT #04-0004), 0.5 μM PD0325901 (STEMGENT #04-0006) and 1000 U LIF]. Five days later, expanded cells were reseeded as established ntESC.

[1] = MEF donor cells (C57BL/6, male) treated with transfection reagent alone, injected mRNA 1800 ng/μl
[2] = Sertoli donor cells (BDF1, male), injected mRNA 1800 ng/μl
[3] = cumulus donor cells (BDF1, female), TSA treatment 15 nM for 8 h, water or mRNA 1800 ng/μl injected
[4] = cumulus donor cells (BDF1, female), no TSA, injected mRNA 1800 ng/μl
[5] = cumulus donor cells (BDF1, female), no TSA, mRNA 1800 ng/μl
[6] = TSA treatment 15 nM for 8 h, water or mRNA 1800 ng/μl injected

Q: Which “% 4-cell per 2-cell ± SD” value (SCNT embryos; [1]) does the source give for “Kdm4d WT mRNA: in vitro transcribed full length mouse Kdm4d mRNA, encoding an H3K9me3-specific histone demethylase” here?
A: The value was 95.4 ± 5.5 %.

Q: And the “% blast per 2-cell ± SD” value (SCNT embryos; [1])?
A: Its value is 82.0 ± 10.3 %.

Q: And the “% cleaved per 1-cell ± SD” value (SCNT embryos; [1])?
A: Its value is 86.9 ± 8.8%.

Q: What about the “% morula per 2-cell ± SD” value (SCNT embryos; [1]) of the same substance?
A: Its value is 89.6 ± 7.9 %.

Q: And the “developmental efficiency of SCNT embryos (in words)” value (SCNT embryos; Sertoli cells or C57BL/6 background MEF cells as donor cells)?
A: The value was “significantly improved the developmental efficiency”.

Q: And the “% 4-cell per 2-cell ± SD” value (SCNT embryos; [2])?
A: The value was 95.3 ± 3.6 %.

Q: What about the “% blast per 2-cell ± SD” value (SCNT embryos; [2]) of the same substance?
A: Its value is 81.2 ± 7.5 %.

Q: What about the “% cleaved per 1-cell ± SD” value (SCNT embryos; [2]) of the same substance?
A: Its value is 89.3 ± 8.4%.

Q: And the “% morula per 2-cell ± SD” value (SCNT embryos; [2])?
A: The value was 91.6 ± 6.4 %.

Q: What about the “% 4-cell per 2-cell ± SD” value (SCNT embryos; [3]) of the same substance?
A: Its value is 95.8 ± 0.0 %.

Q: What about the “% cleaved per 1-cell ± SD” value (SCNT embryos; [3]) of the same substance?
A: The value was 94.1 ± 0.0%.

Q: What about the “% morula per 2-cell ± SD” value (SCNT embryos; [3]) of the same substance?
A: The value was 93.8 ± 6.3 %.

Q: What about the “% blast per 2-cell ± SD” value (SCNT embryos; cumulus donor cells (BDF1, female), TSA treatment 15 nM for 8 h, water or mRNA 1800 ng/μl injected, listed as Kdm4d WT) of the same substance?
A: Its value is 87.5 ± 12.5 %.

Q: What about the “% blast per 2-cell ± SD” value (SCNT embryos; cumulus donor cells (BDF1, female), TSA treatment 15 nM for 8 h, water or mRNA 1800 ng/μl injected, listed as Kdm4d mRNA) of the same substance?
A: The value was 87.5%.

Q: What about the “% 4-cell per 2-cell ± SD” value (SCNT embryos; [4]) of the same substance?
A: The value was 98.9 ± 2.3 %.

Q: And the “% cleaved per 1-cell ± SD” value (SCNT embryos; [4])?
A: The value was 92.7 ± 6.2%.

Q: And the “% morula per 2-cell ± SD” value (SCNT embryos; [4])?
A: Its value is 96.5 ± 4.4 %.

Q: What about the “% blast per 2-cell ± SD” value (SCNT embryos; cumulus donor cells (BDF1, female), no TSA, injected mRNA 1800 ng/μl, 96 h culture, listed as Kdm4d) of the same substance?
A: Its value is 88.6%.

Q: And the “% blast per 2-cell ± SD” value (SCNT embryos; cumulus donor cells (BDF1, female), no TSA, injected mRNA 1800 ng/μl, 96 h culture, listed as Kdm4d WT)?
A: Its value is 88.6 ± 3.9 %.

Q: What about the “% blast per 2-cell ± SD” value (SCNT embryos; cumulus donor cells (BDF1, female), no TSA, injected mRNA 1800 ng/μl, 96 h culture, listed as wild-type Kdm4d mRNA) of the same substance?
A: Its value is 88.6%.

Q: What about the No. of blastocyst (SCNT embryos; [3]) of the same substance?
A: Its No. of blastocyst is 21.

Q: What about the “blastocyst (% per 1-cell)” value (SCNT embryos; [3]) of the same substance?
A: Its value is 95.5%.

Q: What about the No. of blastocyst (SCNT embryos; [5]) of the same substance?
A: The No. of blastocyst was 18.

Q: What about the “blastocyst (% per 1-cell)” value (SCNT embryos; [5]) of the same substance?
A: The value was 94.7%.

Q: What about the “efficiency of attachment or ntESC derivation per blastocyst, compared to control (in words)” value (SCNT blastocysts; SCNT blastocysts from cumulus donor cells) of the same substance?
A: The value was “did not show any significant difference”.

Q: And the “ntESC derivation efficiency based on the total number of MII oocytes used for SCNT (in words)” value (SCNT blastocysts; cumulus donor cells)?
A: The value was “greatly improved”.

Q: What about the “No. of blastocyst attached to feeder cells” value (SCNT blastocysts; [6]) of the same substance?
A: Its value is 16.

Q: And the “No. of established ntESC lines” value (SCNT blastocysts; [6])?
A: The value was 11.

Q: What about the “blastocyst attached to feeder cells (% per blast)” value (SCNT blastocysts; [6]) of the same substance?
A: Its value is 76.2%.

Q: And the “established ntESC lines (% per MII oocyte)” value (SCNT blastocysts; [6])?
A: Its value is “(44.0) %”.

Q: What about the “established ntESC lines (% per blast)” value (SCNT blastocysts; [6]) of the same substance?
A: Its value is “(52.3) %”.

Q: What about the “No. of blastocyst attached to feeder cells” value (SCNT blastocysts; no TSA, mRNA 1800 ng/μl) of the same substance?
A: Its value is 13.

Q: And the “No. of established ntESC lines” value (SCNT blastocysts; no TSA, mRNA 1800 ng/μl)?
A: The value was 10.

Q: And the “blastocyst attached to feeder cells (% per blast)” value (SCNT blastocysts; no TSA, mRNA 1800 ng/μl)?
A: The value was 72.2%.

Q: And the “established ntESC lines (% per MII oocyte)” value (SCNT blastocysts; no TSA, mRNA 1800 ng/μl)?
A: The value was “(50.0) %”.

Q: What about the “established ntESC lines (% per blast)” value (SCNT blastocysts; no TSA, mRNA 1800 ng/μl) of the same substance?
A: The value was “(55.6) %”.
